Laboratory results: patent US7514432B2, “Compounds and methods of treating cell proliferative diseases, retinopathies and arthritis” (Exonhit Therapeutics SA, priority 2003, dated 2009)
Like-named read-outs stand apart in the source and are kept apart here.

Assays:
[1] = test system: HMEC-1 cells; assay: Tubule formation (tubulogenesis) assay on Matrigel; format: cell-based, Human; conditions: HMEC1 on Matrigel; for IC50: Homo sapiens, HMEC-1, 6 to 8 hours, read-out: IC50, tubulogenesis (number of junctions)
Method: FIG. 5: Tubulogenesis assay (number of junctions). 2 10^4 Cells were plated on Matrigel-coated wells as described in the material and methods. Pictures of each well were taken after a 7-hours incubation. The “number of junctions” parameter was quantitated using the AngioSys software and data were analyzed using GraphPad Prism for IT50 calculation. Values represent the mean±SEM of 2 to 30 independent experiments.
The endothelial cell tube formation assay, or tubulogenesis assay, is an in vitro assay that is widely accepted to accurately reflect number of terminal stages of the angiogenic process such as attachment, migration and differentiation into tubular structures. In this model, endothelial cells are cultured on a monolayer of reconstituted basement membrane components (Matrigel) and form, in a few hours, capillary-lilke structure. Therefore, this system is a useful and powerful tool for rapidly screening anti-angiogenic agents by monitoring inhibition of endothelial cells morphogenesis on extracellular matrix.
HMEC-1 cell line is cultured in MCDB-131 medium (Sigma) supplemented with 15% FBS, 10 ng/ml recombinant human epidermal growth factor (Invitrogen) and 1 μg/ml hydrocortisone. Cells are cultured to 70-80% confluence. A 96-well plate was coated with Matrigel® Basement Membrane Matrix (Becton Dickinson). 2 10^4 HMEC-1 cells were seeded into each well. The test or control compounds were diluted in DMSO and added to the coated plate. The plate was subsequently incubated for 6 to 8 hours at 37° C., 5% CO2 atmosphere to allow tubule formation. The cells were then incubated with 1.25 μg/ml Calcein AM for 15 minutes at 37° C., 5% CO2. Pictures of each well were taken using a fluorescent microscope and a digital camera (Nikon Coolpix 990). Images were analysed using AngioSys software (TCS Cellworks) that allows quantification of the total tubule length and of the number of junctions, two parameters representative of tubule formation/disruption. Data was analyzed using the GraphPad Prism software, and IT50s (dose leading to 50% inhibition of tubulogenesis) was calculated.

[2] = test system: DLD1; assay: Cell viability assay (MTT), DLD1; format: cell-based; conditions: Homo sapiens, DLD-1, 72 h, 10% FBS, 3-day treatment, 1% DMSO
Method: Table 14: 3-day cell viability assay (MTT) in the presence of 10% Fetal Bovine Serum and 1% DMSO, in DLD1, HCT116, MDA-MB-231, MCF7 and HeLa cells. 7.5 10^3 to 1.5 10^4 cells were seeded in 48-well plates in growth medium containing 10% FBS, with or without various concentrations of test compounds. Data were analyzed and IC50s were calculated from dose-response curves using GraphPad Prism. Results summarized in the tables are mean±SEM of 1 to 7 independent experiments.
In order to determine a compound's effect on cell viability, microculture tetrazolium assays (MTT) were performed as described by Carmichael et al. (1996) with modifications. Four human tumoral cell lines, namely HCT116 colon adenocarcinoma, H460 lung carcinoma, MCF-7 and MDA-MB-231 breast carcinoma cell lines, DLD1 colorectal adenocarcinoma, HeLa adenocarcinoma, HepG2 hepatocellular carcinoma. 3 immortalized but non tumorigenic cell lines, namely NIH3T3 mouse fibroblasts (American Type Culture Collection) and primary hepatocytes (Biopredic international), cultured according to their recommendations together with Human Microvasculature Endothelial Cell line HMEC1 (National Center for Infectious Diseases). Briefly, cells were seeded in 48-well plates 24 hours before drug addition. Cells were treated with 0 to 200 μM (11 concentrations) of compound solubilized in DMSO, adjusting the final concentration of DMSO to 1% in the well. 16 hours, and three or six days after treatment, 0.5 mg/ml MTT (Sigma) was added to the medium and cells were incubated for 1-5 hours at 37° C. before solubilization of formazan crystals in 100% DMSO. Absorbance was measured using a spectrophotometer at a wavelength of 550 nm. Data was analyzed using the GraphPad Prism software (GraphPad Software, Inc.), and IC50 (dose leading to 50% cell death) was calculated from the dose-response curves.

[3] = test system: HMEC1; assay: Boyden chamber migration assay, HMEC1; format: cell-based; conditions: Homo sapiens, read-out: IC50, migration in Boyden chamber, HMEC1
Method: (§1) FIG. 4: Migration assays. (A) Wound healing assay in REF cells. 7.6 10^4 cells were plated on coverslips 48 hours before the experiment. The cells were pre-treated for 30 min. with the compounds, and then a scrape was done using a pipette tip. The scraped coverslips in treatment medium were put under a thermostated microscope coupled to a video camera. Movies were analyzed as described in material and methods, and velocity and total distance covered by the cells were evaluated. Bar graphs represent the mean±SEM of 2 to 4 experiments. (B) Boyden chamber migration assay in HMEC1, NIH3T3 and MDA-MB-231 cells. 5 10^4 to 7.5 10^4 Cells, resuspended in culture medium with or without FBS and with different compound concentrations, were seeded in the upper Boyden blind well on top of 8 μm pore-sized filters. The ability of the cells to migrate through the filter was assayed in the absence or presence of FBS in the lower Boyden chamber. After 16 hours incubation, the medium was removed and replaced with calcein-AM containing medium. After labeling, cells were washed with HBSS and fluorescence was read in a fluorescence plate reader. Fluorescence values were normalized against the fluorescence obtained for the 1% DMSO control. The data plotted are the means±SEM of 2 to 4 independent experiments.
An essential characteristic of malignant cells is their ability to migrate, invade host tissues and to produce metastases. In order to evaluate the capacity of one compound to affect the ability of tumoral cells to migrate, migration assays were performed using highly invasive tumoral cells MDA-MB-231, endothelial cells HMEC1 or fibroblastic cells NIH3T3. This assay was performed using Falcon HTS Fluoroblock inserts. […] Fluorescence data were collected using Fluoroskan Ascent FL fluorescence plate reader at an excitation wavelength (Ex) of 485 nm and emission wavelength (Em) of 517 nm. Only those labelled cells that passed through the Matrigel layer and the membrane were detected. […]

[4] = test system: NIH3T3; assay: Boyden chamber migration assay, NIH3T3; format: cell-based, mouse; conditions: Mus musculus, FBS as chemoattractant
Method: as §1
An essential characteristic of malignant cells is their ability to migrate, invade host tissues and to produce metastases. In order to evaluate the capacity of one compound to affect the ability of tumoral cells to migrate, migration assays were performed using highly invasive tumoral cells MDA-MB-231, endothelial cells HMEC1 or fibroblastic cells NIH3T3. This assay was performed using Falcon HTS Fluoroblock inserts. Culture medium containing Fetal Bovine Serum (FBS; which is used as a chemoattractant) was added to the plate wells and 2 10^4 to 7.5 10^4 cells resuspended in medium without FBS and with 0.1% BSA were added to each insert well. The compound of interest was added to the medium in both the upper and the lower chambers. Plates were incubated for 16 hours at 37° C. Following incubation, the medium was removed from the upper chamber and the entire insert plate was transferred to a second 24-well plate containing 4 μg/ml Calcein-AM™ in medium containing 0.1% BSA. The plates were incubated for one hour at 37° C., rinsed with Hanks Buffered Saline (HBSS). Fluorescence data were collected using Fluoroskan Ascent FL fluorescence plate reader at an excitation wavelength (Ex) of 485 nm and emission wavelength (Em) of 517 nm. Only those labelled cells that passed through the Matrigel layer and the membrane were detected. Data were analyzed using the GraphPad Prism software and IM50s (dose at which 50% inhibition of cell migration is observed) were calculated.

[5] = HMEC-1, FBS as chemoattractant, 16 hours

| Compound | IC50 [1] | IC50 [2] | IC50 [3, 5] | IC50 ([4]; NIH3T3, 16 h) | fold more active than reference compound CAI in tubulogenesis [1] | IC50 ([3]; HMEC-1, 16 h) | IC50 ([4]; NIH3T3, 16 hours) |
| --- | --- | --- | --- | --- | --- | --- | --- |
| CN1CCN(Cc2cc(=O)c(OCCCCCSc3ccnc4cc(C(F)(F)F)ccc34)co2)CC1.Cl.Cl.Cl [EHT 9241, 5-(5-(7-(Trifluoromethyl)quinolin-4-ylthio)pentyloxy)-2-((4-methylpiperazin-1-yl)methyl)-4H-pyran-4-one trihydrochloride] | 26 ± 8.7 µM | 8.1 µM | 9.1 ± 1.4 µM | 4.7 ± 0.6 µM |  |  |  |
| Cl.Cl.Cl.O=c1cc(CN2CCNCC2)occ1OCCCCCSc1ccnc2cc(C(F)(F)F)ccc12 [EHT 8560, 5-(5-(7-(Trifluoromethyl)quinolin-4-ylthio)pentyloxy)-2-((piperazin-1-yl)methyl)-4H-pyran-4-one trihydrochloride] | 17 ± 3.6 µM | 5.6 µM | 9.5 ± 0.3 µM | 10 ± 0.6 µM |  |  |  |
| Cl.Cl.O=c1cc(CN2CCOCC2)occ1OCCCCCSc1ccnc2cc(C(F)(F)F)ccc12 [EHT 1864, 5-(5-(7-(Trifluoromethyl)quinolin-4-ylthio)pentyloxy)-2-(morpholinomethyl)-4H-pyran-4-one dihydrochloride] | 34.9 ± 3.5 µM | 21.9 µM |  |  | 4 fold | 7.8 ± 1.7 µM | 20.4 ± 3.5 µM |
